Assay results published in PMC8427973, “Regulation of the HTRA2 Protease Activity by an Inhibitory Antibody-Derived Peptide Ligand and the Influence on HTRA2-Specific Protein Interaction Networks in Retinal Tissues” (Biomedicines, 2021).
Each block holds one molecule with its values, some of them ahead of it.

Key:
[1] = target: T1, recombinant HTRA2 protein (Homo sapiens, UniProt O43464); experiment: HTRA2 protease activity assay with fluorescent H2-optimal substrate; format: biochemical; settings: for Increase of the average degradation rate of the optimal substrate H2 with respect to the untreated positive control: 100 nM HTRA2, 10 µM substrate, RT; for Average degradation rate of the optimal substrate H2 by HTRA2 (enzymatic reaction rate per minute): 100 nM recombinant HTRA2, 10 µM H2-optimal substrate, pH 8.0, RT, fluorescence ex 320 nm / em 405 nm, untreated positive control 229 U/min; for Inhibitory effect on HTRA2 after targeted alanine substitution in the CDR binding motif (mutational analysis): protease activity assay, Figure S1
T1 construct: 6xHis (C); purchased Novoprotein Scientific INC., Summit, NJ, USA
T1 sequence (O43464 134-458): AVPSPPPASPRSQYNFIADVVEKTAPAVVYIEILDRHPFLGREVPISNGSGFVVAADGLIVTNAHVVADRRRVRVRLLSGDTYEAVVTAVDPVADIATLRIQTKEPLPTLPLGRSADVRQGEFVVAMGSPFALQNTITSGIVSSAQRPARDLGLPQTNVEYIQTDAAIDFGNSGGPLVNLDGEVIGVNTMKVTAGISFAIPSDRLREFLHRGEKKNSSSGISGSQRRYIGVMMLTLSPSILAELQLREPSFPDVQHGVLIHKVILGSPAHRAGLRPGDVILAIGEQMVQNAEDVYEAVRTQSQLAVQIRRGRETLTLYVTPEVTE
Procedure: The HTRA2 protease activity assay was performed as described by Martins et al. (2003), but with some slight modifications. The experiment was performed with 100 nM recombinant HTRA2 protein (Novoprotein Scientific INC., Summit, NJ, USA) in a protease assay buffer (50 mM tris(hydroxymethyl)-aminomethane (TRIS), 0.5 mM ethylenediaminetetraacetic acid (EDTA), and 1 mM dithiothreitol (DTT), pH 8.0) containing 10 µM H2-optimal substrate (Innovagen AB, Lund, Sweden). The H2-optimal substrate is commonly used to measure the protease activity of HTRA2 and consists of a structural quencher and a fluorophore unit. The cleavage of the substrate leads to the disruption of the quencher/fluorophore complex and the degradation rate can be measured by fluorescence. The different sample groups were treated with 50 µM PDZ-Opt, 50 µM PDZ-Sub, 50 µM synthetic CDR1 peptide, or 30 µM UCF-101, respectively. The drug compound UCF-101 is an inhibitor of the catalytic domain of HTRA2 and was purchased from Sigma Aldrich (Darmstadt, Germany). The concentrations of the peptide ligands for the HTRA2 protease activity assay were chosen from the previous publication. The concentration of UCF-101 was determined to be optimal from the preliminary experiments. In addition, a positive control containing only 100 nM recombinant HTRA2 and a negative control (only protease assay buffer) were included in this experiment. All of the sample groups were incubated for 1 h at 37 °C to determine the maximum degradation rate of HTRA2. For the analysis of the enzymatic reaction rate of HTRA2, all samples were measured subsequently after the addition of the 10 µM H2-optimal substrate at RT. Fluorescence was monitored on a Spark® 10 M multimode microplate-reader (Tecan Trading AG, Männedorf, Switzerland) with an excitation at 320 nm and a fluorescence emission at 405 nm. The fluorescence background of the substrate was substracted from the fluorescence intensities of the different the sample groups to normalize the data.
To determine the proteolytic activity of HTRA2 we used the fluorescent H2 optimal substrate developed by Martins et al. (2003). The optimal substrate H2 encoded a short specific amino acid sequence, which is preferentially cleaved by HTRA2, and was also modified with a fluorescent dye and quencher. […] Under physiological conditions, the proteolytic activity of HTRA2 is suppressed by the C-terminal PDZ domain, which blocks the access of potential substrates to the catalytic domain by steric hindrance. The binding of short hydrophobic polypeptides to the allosteric PDZ domain can induce specific conformational changes of HTRA2 and are able to regulate its proteolytic activity. Therefore, Martins et al. (2003) specifically designed the peptide ligands PDZ-Opt (GQYYFV) and PDZ-Sub (GGIRRV), which are known to increase the proteolytic activity of HTRA2 in this assay.

[2] = test system: HTRA2-PDZ domain; set-up: method as in PMID 23457469; settings: cited from earlier work
[3] = target: Serine protease HTRA2, mitochondrial (recombinant, 6xHis-tag) (UniProt O43464)

Increase of the average degradation rate of the optimal substrate H2 with respect to the untreated positive control ([1]; 50 µM peptide): up to 18%
Average degradation rate of the optimal substrate H2 by HTRA2 (enzymatic reaction rate per minute) ([1]; 50 µM peptide): 272 U/min
Molecule: GGIRRV [PDZ-Sub, a peptide generated by HTRA2 auto-proteolysis, reference compound]

Molecule: YVWAGSTLSRTGNFY [scrambled CDR, scrambled CDR peptide analog]
Maximum degradation rate of the H2 optimal substrate by HTRA2 ([1]; 50 µM peptide, 1 h at 37 °C, n = 3, Figure 1C): unable to induce the suppression of the HTRA2 protease activity

Molecule: ASGYTATNYGLSWVR [F(6), CDR peptide for the mutational analysis, alanine at position 6]
Inhibitory effect on HTRA2 after targeted alanine substitution in the CDR binding motif (mutational analysis) [1]: particular important presence of Y(4) and F(6) for the inhibitory effect on HTRA2

Molecule: AGYTGFV
Glide score for binding to the HTRA2-PDZ domain [2]: -7.903 kcal/mol

Increase of the average degradation rate of the optimal substrate H2 with respect to the untreated positive control ([1]; 50 µM peptide): up to 50%
Average degradation rate of the optimal substrate H2 by HTRA2 (enzymatic reaction rate per minute) ([1]; 50 µM peptide): 345 U/min
Molecule: GQYYFV [PDZ-Opt, reference compound]

Molecule: ASGYAFTNYGLSWVR [T(5) to A(5), CDR peptide for the mutational analysis, alanine at position 5]
Inhibitory effect on HTRA2 after targeted alanine substitution in the CDR binding motif (mutational analysis) [1]: significantly strengthened the inhibitory effect

Molecule: ASGATFTNYGLSWVR [Y(4), CDR peptide for the mutational analysis, alanine at position 4]
Inhibitory effect on HTRA2 after targeted alanine substitution in the CDR binding motif (mutational analysis) [1]: particular important presence of Y(4) and F(6) for the inhibitory effect on HTRA2

average degradation rate of the fluorescent H2 optimal substrate (10 µM) by 100 nM HTRA2 with 50 µM PDZ-Opt; untreated HTRA2 229 U/min (increase up to 50%) [3]: 345 U/min
Molecule: GQYYFV [PDZ-Opt]

average degradation rate of the fluorescent H2 optimal substrate (10 µM) by 100 nM HTRA2 with 50 µM PDZ-Sub; untreated HTRA2 229 U/min (increase up to 18%) [3]: 272 U/min
Molecule: GGIRRV [PDZ-Sub]
